Measurements from patent publication US20240360177A1, “PEPTIDES WITH ANTIMICROBIAL ACTIVITIES” (priority 2021, published 2024).
Converted amounts (≈) assume the structure as drawn. Like-named read-outs stand apart in the source and are kept apart here. Non-standard residues stand in square brackets, D forms with d. Residues, ends and D or L forms follow the SMILES beside them. hArg = N=C(N)NCCCC[C@H](N)C(=O)O; 4Pal = N[C@@H](Cc1ccncc1)C(=O)O; hLeu = CC(C)CC[C@H](N)C(=O)O; Inp = O=C(O)C1CCNCC1; Ava = NCCCCC(=O)O

Experiments:
[1] = test system: Candida spp.
[2] = test system: C. albicans
[3] = test system: C. glabrata
[4] = test system: C. parapsilosis
[5] = test system: C. krusei
[6] = test system: C. auris
[7] = test system: C. tropicalis
[8] = test system: C. dubliniensis
[9] = test system: C. neoformans; conditions: 72 h
[10] = test system: C. gattii; conditions: 72 h
[11] = N = 15 strains, 24 h (Table 13)
[12] = N = 15 strains, 48 h (Table 13)

Molecule: N=C(N)NCCC[C@@H](N)C(=O)N[C@@H](CCCNC(=N)N)C(=O)N[C@H](CCCNC(=N)N)C(=O)N[C@H](CCCNC(=N)N)C(=O)N[C@@H](CCCNC(=N)N)C(=O)N[C@H](CCCNC(=N)N)C(=O)N[C@H](CCCNC(=N)N)C(=O)N[C@@H](CCCNC(=N)N)C(=O)N[C@H](CCCNC(=N)N)C(=O)N[C@@H](CCCNC(=N)N)C(=O)N[C@H](CCCNC(=N)N)C(=O)N[C@@H](CCCNC(=N)N)C(=O)N[C@H](CCCNC(=N)N)C(=O)N[C@@H](CCCNC(=N)N)C(N)=O [14 Polyarginine, rRrrRrrRrRrRrR-NH2, reference compound]
- Activity at 24 h MIC50 against Candida spp. [1, 11]: 0.5 µg/mL
- Activity at 24 h MIC90 against Candida spp. [1, 11]: 8 µg/mL
- Activity at 48 h MIC50 against Candida spp. [1, 12]: 0.5 µg/mL
- Activity at 48 h MIC90 against Candida spp. [1, 12]: >32 µg/mL

Molecule: N=C(N)NCCC[C@@H](N)C(=O)N[C@@H](CCCNC(=N)N)C(=O)N[C@H](CCCNC(=N)N)C(=O)N[C@@H](CCCNC(=N)N)C(=O)N[C@H](CCCNC(=N)N)C(=O)N1CCC[C@H]1C(=O)N[C@H](CCCNC(=N)N)C(=O)N[C@@H](CCCNC(=N)N)C(=O)N[C@H](CCCNC(=N)N)C(=O)N[C@@H](CCCNC(=N)N)C(=O)N[C@H](CCCNC(=N)N)C(=O)N1CCC[C@H]1C(=O)N[C@H](CCCNC(=N)N)C(=O)N[C@@H](CCCNC(=N)N)C(=O)N[C@H](CCCNC(=N)N)C(=O)N[C@@H](CCCNC(=N)N)C(N)=O [SEQ ID NO: 61, rRrRr-P-rRrRr-P-rRrR-NH2] (H-[dR]R[dR]R[dR]P[dR]R[dR]R[dR]P[dR]R[dR]R-NH2)
- MIC C. albicans ([2]; 24 h): 0.25 µg/mL (≈ 0.104 µM)
- MIC C. glabrata ([3]; 24 h): 0.5 µg/mL (≈ 0.209 µM)
- MIC C. parapsilosis ([4]; 24 h): 0.25 µg/mL (≈ 0.104 µM)
- MIC C. krusei ([5]; 24 h): 0.5 µg/mL (≈ 0.209 µM)
- MIC C. auris ([6]; 24 h): 1 µg/mL (≈ 0.417 µM)
- MIC C. tropicalis ([7]; 24 h): 0.25 µg/mL (≈ 0.104 µM)
- MIC C. dubliniensis ([8]; 24 h): 0.25 µg/mL (≈ 0.104 µM)
- Activity at 24 h MIC50 against Candida spp. ([1]; 24 h): 0.5 µg/mL
- Activity at 24 h MIC90 against Candida spp. ([1]; 24 h): 1 µg/mL
- Activity at 48 h MIC50 against Candida spp. ([1]; 48 h): 0.5 µg/mL
- Activity at 48 h MIC90 against Candida spp. ([1]; 48 h): 16 µg/mL

Molecule: N=C(N)NCCC[C@@H](N)C(=O)N[C@@H](CCCNC(=N)N)C(=O)N[C@H](CCCNC(=N)N)C(=O)N1CCC(C(=O)N[C@H](CCCNC(=N)N)C(=O)N[C@@H](CCCNC(=N)N)C(=O)N[C@H](CCCNC(=N)N)C(=O)N2CCC(C(=O)N[C@H](CCCNC(=N)N)C(=O)N[C@@H](CCCNC(=N)N)C(=O)N[C@H](CCCNC(=N)N)C(=O)N[C@@H](CCCNC(=N)N)C(=O)N3CCC(C(=O)N[C@H](CCCNC(=N)N)C(=O)N[C@@H](CCCNC(=N)N)C(=O)N[C@H](CCCNC(=N)N)C(=O)N[C@@H](CCCNC(=N)N)C(N)=O)CC3)CC2)CC1 [SEQ ID NO: 74, rRr-(Inp)-rRr-(Inp)-rRrR-(Inp)-rRrR-NH2] (H-[dR]R[dR][Inp][dR]R[dR][Inp][dR]R[dR]R[Inp][dR]R[dR]R-NH2)
- MIC C. albicans ([2]; 24 h): 0.5 µg/mL (≈ 0.197 µM)
- MIC C. glabrata ([3]; 24 h): 0.5 µg/mL (≈ 0.197 µM)
- MIC C. parapsilosis ([4]; 24 h): 0.25 µg/mL (≈ 0.0985 µM)
- MIC C. krusei ([5]; 24 h): 1 µg/mL (≈ 0.394 µM)
- MIC C. auris ([6]; 24 h): 0.5 µg/mL (≈ 0.197 µM)
- MIC C. tropicalis ([7]; 24 h): 0.5 µg/mL (≈ 0.197 µM)
- MIC C. dubliniensis ([8]; 24 h): 0.5 µg/mL (≈ 0.197 µM)

Molecule: N=C(N)NCCC[C@@H](N)C(=O)N[C@@H](CCCNC(=N)N)C(=O)N[C@H](CCCNC(=N)N)C(=O)N[C@@H](Cc1ccncc1)C(=O)N[C@H](CCCNC(=N)N)C(=O)N[C@@H](CCCNC(=N)N)C(=O)N[C@H](CCCNC(=N)N)C(=O)N[C@@H](Cc1ccncc1)C(=O)N[C@H](CCCNC(=N)N)C(=O)N[C@@H](CCCNC(=N)N)C(=O)N[C@H](CCCNC(=N)N)C(=O)N[C@@H](CCCNC(=N)N)C(=O)N[C@@H](Cc1ccncc1)C(=O)N[C@H](CCCNC(=N)N)C(=O)N[C@@H](CCCNC(=N)N)C(=O)N[C@H](CCCNC(=N)N)C(=O)N[C@@H](CCCNC(=N)N)C(N)=O [SEQ ID NO: 77, rRr-(4-PyrAla)-rRr-(4-PyrAla)-rRrR-(4-PyrAla)-rRrR-NH2] (H-[dR]R[dR][4Pal][dR]R[dR][4Pal][dR]R[dR]R[4Pal][dR]R[dR]R-NH2)
- MIC C. albicans ([2]; 24 h): 0.5 µg/mL (≈ 0.189 µM)
- MIC C. glabrata ([3]; 24 h): 0.5 µg/mL (≈ 0.189 µM)
- MIC C. parapsilosis ([4]; 24 h): 0.25 µg/mL (≈ 0.0944 µM)
- MIC C. krusei ([5]; 24 h): 0.5 µg/mL (≈ 0.189 µM)
- MIC C. auris ([6]; 24 h): 0.5 µg/mL (≈ 0.189 µM)
- MIC C. tropicalis ([7]; 24 h): 0.5 µg/mL (≈ 0.189 µM)
- MIC C. dubliniensis ([8]; 24 h): 0.5 µg/mL (≈ 0.189 µM)

Molecule: N=C(N)NCCC[C@@H](N)C(=O)N[C@@H](CCCNC(=N)N)C(=O)N[C@@H](Cc1ccncc1)C(=O)N[C@H](CCCNC(=N)N)C(=O)N[C@@H](CCCNC(=N)N)C(=O)N[C@@H](Cc1ccncc1)C(=O)N[C@H](CCCNC(=N)N)C(=O)N[C@@H](CCCNC(=N)N)C(=O)N[C@H](CCCNC(=N)N)C(=O)N[C@@H](Cc1ccncc1)C(=O)N[C@H](CCCNC(=N)N)C(=O)N[C@@H](CCCNC(=N)N)C(=O)N[C@H](CCCNC(=N)N)C(N)=O [SEQ ID NO: 78, rR-(4-PyrAla)-rR-(4-PyrAla)-rRr-(4-PyrAla)-rRr-NH2] (H-[dR]R[4Pal][dR]R[4Pal][dR]R[dR][4Pal][dR]R[dR]-NH2)
- MIC C. albicans ([2]; 24 h): 0.5 µg/mL (≈ 0.247 µM)
- MIC C. glabrata ([3]; 24 h): 0.5 µg/mL (≈ 0.247 µM)
- MIC C. parapsilosis ([4]; 24 h): 0.25 µg/mL (≈ 0.124 µM)
- MIC C. krusei ([5]; 24 h): 1 µg/mL (≈ 0.494 µM)
- MIC C. auris ([6]; 24 h): 16 µg/mL (≈ 7.91 µM)
- MIC C. tropicalis ([7]; 24 h): 0.5 µg/mL (≈ 0.247 µM)
- MIC C. dubliniensis ([8]; 24 h): 0.25 µg/mL (≈ 0.124 µM)

Molecule: N=C(N)NCCCC[C@H](NC(=O)[C@@H](CCCNC(=N)N)NC(=O)[C@H](CCCCNC(=N)N)NC(=O)[C@@H](CCCNC(=N)N)NC(=O)CCCCNC(=O)[C@H](CCCCNC(=N)N)NC(=O)[C@@H](CCCNC(=N)N)NC(=O)[C@H](CCCCNC(=N)N)NC(=O)[C@@H](CCCNC(=N)N)NC(=O)CCCCNC(=O)[C@@H](CCCNC(=N)N)NC(=O)[C@H](CCCCNC(=N)N)NC(=O)[C@@H](CCCNC(=N)N)NC(=O)CCCCNC(=O)[C@@H](CCCNC(=N)N)NC(=O)[C@H](CCCCNC(=N)N)NC(=O)[C@H](N)CCCNC(=N)N)C(N)=O [SEQ ID NO: 89, r(Har)r-(Ava)-r(Har)r-(Ava)-r(Har)r(Har)-(Ava)-r(Har)r(Har)-NH2] (H-[dR][hArg][dR][Ava][dR][hArg][dR][Ava][dR][hArg][dR][hArg][Ava][dR][hArg][dR][hArg]-NH2)
- MIC C. albicans ([2]; 24 h): 1 µg/mL (≈ 0.387 µM)
- MIC C. glabrata ([3]; 24 h): 1 µg/mL (≈ 0.387 µM)
- MIC C. parapsilosis ([4]; 24 h): 0.5 µg/mL (≈ 0.193 µM)
- MIC C. krusei ([5]; 24 h): 1 µg/mL (≈ 0.387 µM)
- MIC C. auris ([6]; 24 h): 0.5 µg/mL (≈ 0.193 µM)
- MIC C. tropicalis ([7]; 24 h): 1 µg/mL (≈ 0.387 µM)
- MIC C. dubliniensis ([8]; 24 h): 1 µg/mL (≈ 0.387 µM)
- MIC C. neoformans [9]: 0.25 µg/mL (≈ 0.0967 µM)
- MIC C. gattii [10]: 0.25 µg/mL (≈ 0.0967 µM)

Molecule: CC(C)CC[C@H](N)C(=O)N[C@@H](CCCNC(=N)N)C(=O)N[C@H](CCCNC(=N)N)C(=O)N1CCC[C@H]1C(=O)N[C@H](CCCNC(=N)N)C(=O)N[C@@H](CCCNC(=N)N)C(=O)N[C@H](CCCNC(=N)N)C(=O)N1CCC[C@H]1C(=O)N[C@H](CCCNC(=N)N)C(=O)N[C@@H](CCCNC(=N)N)C(=O)N[C@H](CCCNC(=N)N)C(=O)N[C@@H](CCCNC(=N)N)C(=O)N1CCC[C@H]1C(=O)N[C@H](CCCNC(=N)N)C(=O)N[C@@H](CCCNC(=N)N)C(=O)N[C@H](CCCNC(=N)N)C(=O)N[C@@H](CCCNC(=N)N)C(N)=O [SEQ ID NO: 94, (hLeu)Rr-P-rRr-P-rRrR-P-rRrR-NH2] (H-[hLeu]R[dR]P[dR]R[dR]P[dR]R[dR]RP[dR]R[dR]R-NH2)
- MIC C. albicans ([2]; 24 h): 0.5 µg/mL (≈ 0.203 µM)
- MIC C. glabrata ([3]; 24 h): 0.5 µg/mL (≈ 0.203 µM)
- MIC C. parapsilosis ([4]; 24 h): 0.25 µg/mL (≈ 0.101 µM)
- MIC C. krusei ([5]; 24 h): 1 µg/mL (≈ 0.406 µM)
- MIC C. auris ([6]; 24 h): 1 µg/mL (≈ 0.406 µM)
- MIC C. tropicalis ([7]; 24 h): 0.5 µg/mL (≈ 0.203 µM)
- MIC C. dubliniensis ([8]; 24 h): 0.5 µg/mL (≈ 0.203 µM)

Molecule: rRr-(Apg)-rRr-(Apg)-rRrR-(Apg)-rRrR-NH2 [SEQ ID NO: 38]
- MIC C. albicans ([2]; 24 h): 0.5 µg/mL
- MIC C. glabrata ([3]; 24 h): 1 µg/mL
- MIC C. parapsilosis ([4]; 24 h): 0.25 µg/mL
- MIC C. krusei ([5]; 24 h): 0.25 µg/mL
- MIC C. auris ([6]; 24 h): 2 µg/mL
- MIC C. tropicalis ([7]; 24 h): 0.5 µg/mL
- MIC C. dubliniensis ([8]; 24 h): 0.5 µg/mL

Molecule: rRr-(Igl)-rRr-(Igl)-rRrR-(Igl)-rRrR-NH2 [SEQ ID NO: 75]
- MIC C. albicans [2]: 0.5 µg/mL
- MIC C. glabrata [3]: 0.5 µg/mL
- MIC C. parapsilosis [4]: 0.5 µg/mL
- MIC C. krusei [5]: 0.5 µg/mL
- MIC C. auris [6]: 0.5 µg/mL
- MIC C. tropicalis [7]: 0.5 µg/mL
- MIC C. dubliniensis [8]: 0.5 µg/mL
